# From US20080051419A1, “AMINE DERIVATIVES USEFUL AS ANTICANCER AGENTS” (PFIZER INC., priority 2006, published 2008)
# Like-named read-outs stand apart in the source and are kept apart here.
# Target: T1, Akt1 (Homo sapiens, UniProt P31749, S473D)
# T1 construct: The version of Akt used in these studies lacks the pleckstrin homology (PH) domain
# Test: Akt1 kinase assay, fluorescence polarization (IMAP)
# Format: biochemical
# Experimental: The Akt1 kinase assay is based on the measurement of fluorescence polarization using IMAP technology (Molecular Devices Corporation #R8062). Two microliters of inhibitor compounds diluted to a concentration of 10 millimolar are added to column 2 of a polypropylene 96-well plate containing 98 microliters of 100% DMSO; the wells in columns 3-12 contain 60 microliters of 100% DMSO. The various test compounds are serially diluted 1:3 across the plate by pipetting 30 microliters of compounds into wells containing 60 microliters of 100% DMSO. Column 12 receives DMSO only and is used as a negative control for inhibition. The components of the wells are mixed and 15 microliters of each well are transferred to another 96-well plate already containing 60 microliters of reaction buffer (RB: 10 mM Tris-HCl, pH 7.5, 10 mM MgCl2, 0.1 mM EGTA, 0.01% Triton-X100 (Sigma #X-100), freshly added 1 mM DTT). After mixing, the […] reactions are assembled. First, five microliters of the above compound/reaction buffer mixture is transferred to the bottom of a 96-well black polystyrene reaction plate (Costar, #3694). Next, ten microliters of a solution containing 4 micromolar ATP and 40 nanomolar fluorescent-labeled Crosstide (Tamara-labeled […] peptide) are added. Then, 5 microliters (1.5 nanograms) of Akt protein in RB are added. The version of Akt used in these studies lacks the pleckstrin homology (PH) domain, and contains an aspartic acid residue in place of a serine residue in position 473 within the Akt1 hydrophobic motif. The Akt1 protein contains a polyhistidine tag at the amino terminus and is prephosphorylated on threonine at position 308 in order to activate latent kinase activity. Once the reaction components and inhibitors are assembled, the plates are gently tapped, covered with foil, and then incubated at ambient temperature for 30 minutes. IMAP beads (Molecular Devices) are then added (60 microliters of a 1:400 dilution of beads in RB). Plates are read on a Victor Plate Reader with the following settings: CW lamp filter: 544 nm, emission filter: 615 nm. Control values from wells lacking Akt protein are subtracted from the gross readings, and IC50 values are calculated using XLDA.
# [1] = Table 1, concentration bins, read-out: Concentration Range at which exemplary compounds of formula I inhibit Akt kinase activity
# [2] = Table 4, read-out: Avg Akt kinase, μM (50% inhibition)
# [3] = average Akt kinase activity (IC50), read-out: Avg Akt kinase, μM (50% inhibition)
# [4] = Table 3, read-out: Avg Akt kinase, μM (50% inhibition)
# T1 sequence (P31749 118-480 S473D limits assumed, species assumed): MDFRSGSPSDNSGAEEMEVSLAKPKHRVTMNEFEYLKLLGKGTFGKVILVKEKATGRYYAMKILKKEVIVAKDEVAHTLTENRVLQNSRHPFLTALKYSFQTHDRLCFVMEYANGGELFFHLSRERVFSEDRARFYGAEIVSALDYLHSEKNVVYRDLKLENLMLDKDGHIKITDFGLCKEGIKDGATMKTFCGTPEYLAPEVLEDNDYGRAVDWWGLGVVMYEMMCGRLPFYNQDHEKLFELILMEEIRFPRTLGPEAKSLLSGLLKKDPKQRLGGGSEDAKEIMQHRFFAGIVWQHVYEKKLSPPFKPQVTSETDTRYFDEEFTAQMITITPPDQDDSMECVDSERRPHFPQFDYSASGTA
Compound,IC50 [1] [µM],IC50 [2] [µM],IC50 [3] [µM],IC50 [4] [µM],"IC50 (read-out: Avg Akt kinase, μM (50% inhibition)) [µM]"
CCc1c[nH]c2ncnc(N3CCC(N)(COc4cccc(C(F)(F)F)c4)C3)c12 (stereo not drawn) [Example 64],0.0101 to 0.1,0.0215,,,
Cc1cccc(C(=O)NC[C@@]2(N)CCN(c3ncnc4[nH]cc(C)c34)C2)c1Cl [Example 117],0.0101 to 0.1,,0.0135,,
"Cc1c[nH]c2ncnc(N3CCC(N)(COc4cccc(C(F)(F)F)c4)C3)c12 (stereo not drawn) [Example 60, 1-(5-Methyl-7H-pyrrolo[2,3-d]pyrimidin-4-yl)-3-(3-trifluoromethyl-phenoxymethyl) pyrrolidin-3-ylamine]",0.0101 to 0.1,0.0504,,,
COC(=O)c1ccccc1NCC1(N)CCN(c2ncnc3[nH]cc(C)c23)C1 (stereo not drawn) [Example 19],0.00251 to 0.01,,,0.01,
"Cc1c[nH]c2ncnc(N3CCC(N)(CNc4cccc(-c5cnco5)c4)C3)c12 (stereo not drawn) [Example 44, 1-(5-methyl-7H-pyrrolo[2,3-d]pyrimidin-4-yl)-3-({[3-(1,3-oxazol-5-yl)phenyl]amino}methyl)pyrrolidin-3-amine]",0.101 to 10,,,0.837,
"N[C@]1(CNC(=O)c2ccc(F)cc2F)CCN(c2ncnc3[nH]cc(Cl)c23)C1 [Example 82, N-{[(3S)-3-amino-1-(5-chloro-7H-pyrrolo[2,3-d]pyrimidin-4-yl)pyrrolidin-3-yl]methyl}-2,4-difluorobenzamide]",0.00025 to 0.0025,,0.00163,,
"Cc1c[nH]c2ncnc(N3CC[C@](N)(CNC(=O)c4c(F)ccc(F)c4F)C3)c12 [Example 120, N-{[(3S)-3-amino-1-(5-methyl-7H-pyrrolo[2,3-d]pyrimidin-4-yl)pyrrolidin-3-yl]methyl}-2,3,6-trifluorobenzamide]",0.0101 to 0.1,,0.0255,,
Cc1cccc(F)c1C(=O)NC[C@@]1(N)CCN(c2ncnc3[nH]cc(Cl)c23)C1 [Example 122],0.0101 to 0.1,,0.029,,
"Cc1c(F)cccc1NCC1(N)CCN(c2ncnc3[nH]cc(C)c23)C1 (stereo not drawn) [Example 28, 3-{[(3-fluoro-2-methylphenyl)amino]methyl}-1-(5-methyl-7H-pyrrolo[2,3-d]pyrimidin-4-yl)pyrrolidin-3-amine]",0.00251 to 0.01,,,0.00952,
"Cc1c[nH]c2ncnc(N3CCC(N)(CCc4cccc(C(F)(F)F)c4)C3)c12 (stereo not drawn) [Example 67, 1-(5-methyl-7H-pyrrolo[2,3-d]pyrimidin-4-yl)-3-{2-[3-(trifluoromethyl) -phenyl]ethyl}pyrrolidin-3-amine]",0.101 to 10,,0.126,,
"N[C@]1(CNC(=O)c2ccc(Cl)cc2F)CCN(c2ncnc3[nH]cc(Cl)c23)C1 [Example 84, N-{[(3S)-3-amino-1-(5-chloro-7H-pyrrolo[2,3-d]pyrimidin-4-yl)pyrrolidin-3-yl]methyl}-4-chloro-2-fluorobenzamide]",0.0101 to 0.1,,0.0111,,
"Cc1c[nH]c2ncnc(N3CC[C@](N)(CNC(=O)c4ccc(Cl)cc4)C3)c12 [Example 74, (S)—N-((3-amino-1-(5-methyl-7H-pyrrolo[2,3-d]pyrimidin-4-yl)pyrrolidin-3-yl)methyl)-4-chlorobenzamide]",0.0101 to 0.1,,0.0114,,
"N[C@]1(CNC(=O)c2ccc(Cl)c(F)c2)CCN(c2ncnc3[nH]cc(Cl)c23)C1 [Example 83, N-{[(3S)-3-amino-1-(5-chloro-7H-pyrrolo[2,3-d]pyrimidin-4-yl)pyrrolidin-3-yl]methyl}-4-chloro-3-fluorobenzamide]",0.00251 to 0.01,,0.00915,,
"Cc1ccccc1C(=O)NC[C@@]1(N)CCN(c2ncnc3[nH]cc(C)c23)C1 [Example 127, N-{[(3S)-3-amino-1-(5-methyl-7H-pyrrolo[2,3-d]pyrimidin-4-yl)pyrrolidin-3-yl]methyl}-2-methylbenzamide]",0.0101 to 0.1,,0.0362,,
"N[C@]1(CNC(=O)c2ccc(F)cc2)CCN(c2ncnc3[nH]cc(Cl)c23)C1 [Example 78, N-{[(3S)-3-amino-1-(5-chloro-7H-pyrrolo[2,3-d]pyrimidin-4-yl)pyrrolidin-3-yl]methyl}-4-fluorobenzamide]",0.00251 to 0.01,,0.00267,,
"N#Cc1n[nH]c2ncnc(N3CCC(N)(CNc4cccc(Cl)c4)C3)c12 (stereo not drawn) [Example 8, 4-{3-Amino-3-[(3-chloro-phenylamino)-methyl]-pyrrolidin-1-yl}-1H-pyrazolo[3,4-d]pyrimidine-3-carbonitrile]",0.101 to 10,,,0.249,

Compound,IC50 [1] [µM],IC50 [2] [µM],IC50 [3] [µM],IC50 [4] [µM],"IC50 (read-out: Avg Akt kinase, μM (50% inhibition)) [µM]"
"N[C@]1(CNC(=O)c2ccc(F)c(F)c2)CCN(c2ncnc3[nH]cc(Cl)c23)C1 [Example 129, N-{[(3S)-3-amino-1-(5-chloro-7H-pyrrolo[2,3-d]pyrimidin-4-yl)pyrrolidin-3-yl]methyl}-3,4-difluorobenzamide]",0.00251 to 0.01,,0.00334,,
"Cc1c[nH]c2ncnc(N3CCC(N)(CNc4nccc(C(F)(F)F)n4)C3)c12 (stereo not drawn) [Example 57, N-{[3-amino-1-(5-methyl-7H-pyrrolo[2,3-d]pyrimidin-4-yl)pyrrolidin-3-yl]methyl}-4-(trifluoromethyl)pyrimidin-2-amine]",0.0101 to 0.1,,,0.0287,
"Cc1c[nH]c2ncnc(N3CCC(N)(CNc4ccccc4C(=O)NCc4ccccc4)C3)c12 (stereo not drawn) [Example 27, 2-({[3-amino-1-(5-methyl-7H-pyrrolo[2,3-d]pyrimidin-4-yl)pyrrolidin-3-yl]methyl}amimo)-N-benzylbenzamide]",0.101 to 10,,,5.29,
"Cc1c[nH]c2ncnc(N3CCC(N)(CNc4cccc(Cl)c4F)C3)c12 (stereo not drawn) [Example 21, 3-{[(3-chloro-2-fluorophenyl)amino]methyl}-1-(5-methyl-7H-pyrrolo[2,3-d]pyrimidin-4-yl)pyrrolidin-3-amine]",0.00251 to 0.01,,,0.00553,
"N-{[3-amino-1-(1H-pyrrolo[2,3-b]pyridin-4-yl)pyrrolidin-3-yl]methyl}-5-chloropyrimidin-2-amine [Example 59]",,,,0.0035,
"Cc1c[nH]c2ncnc(N3CCC(N)(CN4CCc5ccccc54)C3)c12 (stereo not drawn) [Example 51, 3-(2,3-dihydro-1H-indol-1-ylmethyl)-1-(5-methyl-7H-pyrrolo[2,3-d]pyrimidin-4-yl)pyrrolidin-3-amine]",0.0101 to 0.1,,,0.0362,
CCc1c[nH]c2ncnc(N3CC[C@](N)(CNC(=O)c4cccc(C)c4Cl)C3)c12 [Example 118],0.0101 to 0.1,,0.0124,,
"Cc1c[nH]c2ncnc(N3CCC(N)(CN(CCN(C)C)Cc4ccccc4)C3)c12 (stereo not drawn) [Example 47, N-{[3-amino-1-(5-methyl-7H-pyrrolo[2,3-d]pyrimidin-4-yl)pyrrolidin-3-yl]methyl}-N-benzyl-N′,N′-dimethylethane-1,2-diamine]",0.101 to 10,,,0.172,
Cc1ccccc1C(=O)NC[C@@]1(N)CCN(c2ncnc3[nH]cc(Cl)c23)C1 [Example 131],0.00251 to 0.01,,0.01,,
"N[C@]1(CNC(=O)c2cccc(F)c2)CCN(c2ncnc3[nH]cc(Cl)c23)C1 [Example 104, N-{[(3S)-3-amino-1-(5-chloro-7H-pyrrolo[2,3-d]pyrimidin-4-yl)pyrrolidin-3-yl]methyl}-3-fluorobenzamide]",0.00251 to 0.01,,0.00674,,
"Cc1n[nH]c2ncnc(N3CCC(N)(CNc4cccc(Cl)c4F)C3)c12 (stereo not drawn) [Example 41, 3-{[(3-chloro-2-fluorophenyl)amino]methyl}-1-(3-methyl-1H-pyrazolo[3,4-d]pyrimidin-4-yl)pyrrolidin-3-amine]",0.0101 to 0.1,,,0.0134,
"CCc1c[nH]c2ncnc(N3CC[C@](N)(CNC(=O)c4ccc(Cl)cc4F)C3)c12 [Example 103, N-{[(3S)-3-amino-1-(5-ethyl-7H-pyrrolo[2,3-d]pyrimidin-4-yl)pyrrolidin-3-yl]methyl}-4-chloro-2-fluorobenzamide]",0.00251 to 0.01,,0.00487,,
CCc1c[nH]c2ncnc(N3CCC(N)(CNc4cccc(C(F)(F)F)c4)C3)c12 (stereo not drawn) [Example 9],0.00025 to 0.0025,,,0.002,
"Cc1c[nH]c2ncnc(N3CCC(N)(CNc4cccc(F)c4F)C3)c12 (stereo not drawn) [Example 32, 3-{[(2,3-difluorophenyl)amino]methyl}-1-(5-methyl-7H-pyrrolo[2,3-d]pyrimidin-4-yl)pyrrolidin-3-amine]",0.0101 to 0.1,,,0.0105,
CCc1c[nH]c2ncnc(N3CC[C@](N)(CNC(=O)c4c(F)ccc(F)c4F)C3)c12 [Example 132],0.0101 to 0.1,,0.0175,,
CNC1(CNC(=O)c2ccccc2)CCN(c2ncnc3[nH]cc(Cl)c23)C1 (stereo not drawn) [Example 194],0.0101 to 0.1,,,,0.0897
